According to patent US5514662A, “Use of amphotericin B derivatives as protease inhibitors” (priority 1991, dated 1996):
pIC50: −log10 of the molar value. Like-named read-outs stand apart in the source and are kept apart here.

Experiments:
HIV (cellular viraemia) = assay: Cellular viraemia of AIDS patients' lymphocytes (p24 in supernatants); format: cell-based
Description: Lymphocytes from AIDS patients (<200CD4) are isolated on a Ficoll gradient using heparinised blood. The cells are taken up in RPMI 1640 medium containing antibiotics, 10 U/ml of recombinant IL2 (Boeringher) and anti-interferon alpha serum (anti-IFNα, Sigma) plus 10% of foetal calf serum. The cells are cultured in 24-well plates in an amount of 5×10^5 cells per well for the first concentration and then subjected to 5 fold serial dilutions in the same medium. Half of the medium is replaced twice weekly. Every week, 3×10^5 fresh allogeneic PBMCs, derived from healthy donors, are added to the cultures. The cultures are kept for 28 days in the presence of varying concentrations of DABF-AmB. Vital production is measured weekly by assaying the protein p24 in the supernatants. Each culture and each assay are carried out in duplicate.
The symbols (-) denote that the amount of p24 detected is at least 95% less than the values obtained in the untreated control cultures. […] The results obtained in the LOU patient indicates either a resistance of the virus to the product, or a too high initial viral content. These experiments made it possible to evaluate the IC50 for DABF-AmB at between 1 and 5 μM for the different viral isolates (IC50=Concentrationof the product inhibiting 50% of the p24 titer in the culture supernatants, for a patient cells dilution corresponding to a viral content equivalent to 10TCID50.

AZT-resistant strains = assay: Infection of PBMCs by AZT-resistant HIV-1; format: cell-based; settings: 10 μM, RT activity after 10 days
Description: (§1) PBMCs were infected under the conditions described above in the general procedures, with various HIV-1 isolates derived from patients, or identified as resistant to AZT. The anti-viral effect of DABF-AmB was determined by measuring the RT activity in the supernatants after 10 days of culture.

kallicrein = assay: Activity of DABF-AmB on various proteases: kallicrein; format: biochemical; settings: 1 μM, results not shown
Description: (§2) DABF-AmB was tested, at a concentration of 1 μM, on various proteases (papain, chymotrypsin, kallicrein, leucocyte elastase, cathopsin D and recombinant protease p10) under conditions and in the presence of substrates appropriate for each of the proteases tested.

HRV14 [1] = assay: Cytopathogenic effect of HRV14 in HeLa-Ohio cells; format: cell-based
Description: HeLa-Ohio cells cultured until they have become confluent, are infected with a suspension of HRV14 virus. The cytopathogenic effect of the virus is evaluated by staining the cells with a 0.5% solution of crystal violet and 20% of methanol; after rinsing the plates with water, the optical density is read at 550 nm.
For the rest of the experiment, the cells are infected with a viral suspension with a titre such that 50% of the cells are killed after 3 days on control cells not receiving any treatment. 1 hour after the infection, the test product (AmB or DABF-AmB) is added at concentrations ranging from 0.03 to 100 μM. The percentage inhibition of the cytopathogenic effect is determined as follows:
OD (treated infected cells)-OD (infected cells)!
OD (healthy cells)-OD (infected cells)!
The effect of the addition of DABF-AmB was tested at various times: preincubation of the cells with DABF-AmB before the viral infection; addition of DABF-AmB at the time of the infection; addition of DABF-AmB after the infection, during the period of viral proliferation.

HeLa-Ohio cells = assay: Cytotoxicity in HeLa-Ohio cells; format: cell-based, human; settings: 20 μM for 4 weeks
LTR of HIV = assay: Early phases of HIV infection: transactivation of LTR-LacZ in CD4 HeLa cells (blue colonies); format: cell-based, HIV-1; settings: 10 μM, 24 hours after infection
Description: HeLa cells transfected with the CD4 gene and capable of being infected by HIV, carrying the bacterial gene LacZ placed under the control of the LTR of HIV ROCANCOURT et al., J. Virol., 64:2660-2668, (1990)!, were infected with HIV-1BRU. […] This detection was carried out after fixing the cells by incubating for one hour in-the presence of 5-bromo-4-chloro-3-indoyl-β-D-[…] and enzyme substrate.

HRV14 [2] = assay: Direct virucidal effect on HRV14 (preincubation of virus); format: cell-based; settings: HRV14 preincubated 5 hours at 37° C.
Description: When the suspension of HRV14 is preincubated at 37° C. in the presence of DABF-AmB for 5 hours, no inhibition of the cytopathogenic effect is observed compared with a control suspension incubated under the same conditions in the absence of DABF-AmB.

[3] = tested on: HIV-1 isolates derived from patients; assay: Infection of PBMCs by HIV-1 isolates derived from patients; format: cell-based; settings: 10 μM, 10 viral strains derived from patients, RT activity after 10 days
Description: as §1

trypsin = target: T1, trypsin (Bos taurus, UniProt P00760); assay: Inhibition of trypsin; format: biochemical
T1 sequence (P00760 24-246): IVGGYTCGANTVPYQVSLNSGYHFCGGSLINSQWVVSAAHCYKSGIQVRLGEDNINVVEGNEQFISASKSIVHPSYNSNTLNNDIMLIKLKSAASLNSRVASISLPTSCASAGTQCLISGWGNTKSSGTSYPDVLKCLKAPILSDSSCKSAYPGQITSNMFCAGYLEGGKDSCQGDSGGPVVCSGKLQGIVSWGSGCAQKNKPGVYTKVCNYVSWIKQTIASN

cathopsin D = assay: Activity of DABF-AmB on various proteases: cathopsin D; format: biochemical; settings: 1 μM
Description: as §2

Compound: C[C@@H]1[C@H](O)[C@@H](C)/C=C/C=C/C=C/C=C/C=C/C=C/C=C/[C@H](O[C@@H]2O[C@H](C)[C@@H](O)[C@H](NCC(=O)[C@@H](O)[C@@H]3OC(c4ccccc4)OC[C@H]3O)[C@@H]2O)C[C@@H]2O[C@](O)(C[C@@H](O)C[C@@H](O)[C@H](O)CC[C@@H](O)C[C@@H](O)CC(=O)O[C@H]1C)C[C@H](O)[C@H]2C(=O)O (stereo partly drawn) [DABF-AmB, 1-deoxy-1-amino-4,6-O-benzylidene-D-fructosyl-AmB]
- number of patients in which cellular viraemia is inhibited (HIV (cellular viraemia); 8 different patients): 7 out of 8
- pIC50 (HIV (cellular viraemia); Human immunodeficiency virus 1, Lymphocyte, read-out: IC50 (concentration inhibiting 50% of the p24 titer in the culture supernatants)): 5.30 to 6.00
- cellular viraemia (p24) (HIV (cellular viraemia); patient SAM + MS, day 0): - (the amount of p24 detected is at least 95% less than the values obtained in the untreated control cultures)
- cellular viraemia (p24) (HIV (cellular viraemia); patient SAM + MS, day 14): - (the amount of p24 detected is at least 95% less than the values obtained in the untreated control cultures)
- cellular viraemia (p24) (HIV (cellular viraemia); patient five + MS, day 0): - (the amount of p24 detected is at least 95% less than the values obtained in the untreated control cultures)
- cellular viraemia (p24) (HIV (cellular viraemia); patient five + MS, day 7): - (the amount of p24 detected is at least 95% less than the values obtained in the untreated control cultures)
- cellular viraemia (p24) (HIV (cellular viraemia); patient four + MS, day 0): - (the amount of p24 detected is at least 95% less than the values obtained in the untreated control cultures)
- cellular viraemia (p24) (HIV (cellular viraemia); patient four + MS, day 7): - (the amount of p24 detected is at least 95% less than the values obtained in the untreated control cultures)
- cellular viraemia (p24) (HIV (cellular viraemia); patient four + MS, day 14): - (the amount of p24 detected is at least 95% less than the values obtained in the untreated control cultures)
- cellular viraemia (p24) (HIV (cellular viraemia); patient four + MS, day 21): - (the amount of p24 detected is at least 95% less than the values obtained in the untreated control cultures)
- cellular viraemia (p24) (HIV (cellular viraemia); patient four + MS, day 28): - (the amount of p24 detected is at least 95% less than the values obtained in the untreated control cultures)
- cellular viraemia (p24) (HIV (cellular viraemia); patient one + MS, day 0): - (the amount of p24 detected is at least 95% less than the values obtained in the untreated control cultures)
- cellular viraemia (p24) (HIV (cellular viraemia); patient one + MS, day 7): - (the amount of p24 detected is at least 95% less than the values obtained in the untreated control cultures)
- cellular viraemia (p24) (HIV (cellular viraemia); patient seven + MS, day 0): - (the amount of p24 detected is at least 95% less than the values obtained in the untreated control cultures)
- cellular viraemia (p24) (HIV (cellular viraemia); patient seven + MS, day 14): - (the amount of p24 detected is at least 95% less than the values obtained in the untreated control cultures)
- cellular viraemia (p24) (HIV (cellular viraemia); patient six + MS, day 0): - (the amount of p24 detected is at least 95% less than the values obtained in the untreated control cultures)
- cellular viraemia (p24) (HIV (cellular viraemia); patient six + MS, day 14): - (the amount of p24 detected is at least 95% less than the values obtained in the untreated control cultures)
- cellular viraemia (p24) (HIV (cellular viraemia); patient three + MS, day 0): - (the amount of p24 detected is at least 95% less than the values obtained in the untreated control cultures)
- cellular viraemia (p24) (HIV (cellular viraemia); patient three + MS, day 7): - (the amount of p24 detected is at least 95% less than the values obtained in the untreated control cultures)
- cellular viraemia (p24) (HIV (cellular viraemia); patient three + MS, day 14): - (the amount of p24 detected is at least 95% less than the values obtained in the untreated control cultures)
- cellular viraemia (p24) (HIV (cellular viraemia); patient three + MS, day 21): - (the amount of p24 detected is at least 95% less than the values obtained in the untreated control cultures)
- cellular viraemia (p24) (HIV (cellular viraemia); patient three + MS, day 28): - (the amount of p24 detected is at least 95% less than the values obtained in the untreated control cultures)
- cellular viraemia (p24) (HIV (cellular viraemia); patient two + MS, day 0): - (the amount of p24 detected is at least 95% less than the values obtained in the untreated control cultures)
- cellular viraemia (p24) (HIV (cellular viraemia); patient two + MS, day 7): - (the amount of p24 detected is at least 95% less than the values obtained in the untreated control cultures)
- cellular viraemia (p24) (HIV (cellular viraemia); patient two + MS, day 14): - (the amount of p24 detected is at least 95% less than the values obtained in the untreated control cultures)
- cellular viraemia (p24) (HIV (cellular viraemia); patient two + MS, day 21): - (the amount of p24 detected is at least 95% less than the values obtained in the untreated control cultures)
- cellular viraemia (p24) (HIV (cellular viraemia); patient two + MS, day 28): - (the amount of p24 detected is at least 95% less than the values obtained in the untreated control cultures)
- inhibition of infection of PBMC (AZT-resistant strains): this inhibition is also produced in the case of AZT-resistant strains
- inhibition of kallicrein (kallicrein): inhibits
- concentration from which cytopathogenic effects are completely inhibited (HRV14 [1]; added 1 hour after infection): ≥ 10 µM
- pIC50 (HRV14 [1]; added 1 hour after infection, read-out: IC50 (50% inhibition of the cytopathogenic effect)): 5.30
- stage of action on HRV14 by time of addition (HRV14 [1]; addition before, at time of, or after infection): acts essentially during viral proliferation
- cytotoxic effect (HeLa-Ohio cells): no cytotoxic effect
- inhibition of appearance of blue colonies (LTR of HIV): completely inhibits
- inhibition of the cytopathogenic effect after preincubation of virus (direct virucidal effect) (HRV14 [2]): no direct virucidal effect
- inhibition of infection of PBMC [3]: substantially reducing, or even completely inhibiting
- inhibition at 1 µM (trypsin; 1 μM, FIG. 1, read-out: % inhibition of trypsin relative to a control without inhibitor): > 60%
- inhibition at 100 µM (trypsin; 10^-4 M): 100%
- inhibition of trypsin (in words) (trypsin; 10^-4 M): Total inhibition
- inhibition at 10 µM (trypsin; 10^-5 M): 95%
- inhibition at 1 µM (trypsin; 10^-6 M, read-out: % of inhibition of trypsin): 50%
- inhibition at 0.1 µM (trypsin; 10^-7 M): 20%
- inhibition of cathopsin D (cathopsin D): does not inhibit
